Reference: patent US11414379B2, “SPAK kinase inhibitors as neuroprotective agents” (United States Government as represented by the Department …, priority 2018, dated 2022)
Entries after “also recorded” stand apart in the source; their conditions may differ.

What was measured:
[1] = tested on: mouse model of ischemic stroke; assay: Infarct volume and hemispheric swelling after transient MCAO; type: in vivo; details: 2.5 mg/kg; 24 hr reperfusion
Source text: Under an operating microscope, the left common carotid artery was exposed through a midline incision. […] The ECA was dissected further distally and permanently ligated. The internal carotid artery (ICA) was isolated and carefully separated from the adjacent vagus nerve. A 12 mm length of silicon-coated nylon filament (size 6-0, native diameter 0.11 mm; diameter with coating 0.21+/−0.02 mm; coating length 5-6 mm; Doccol Corporation, Sharon, Mass.) was introduced into the ECA lumen through a puncture. The silk suture around the ECA stump was tightened around the intraluminal nylon suture to prevent bleeding. The nylon suture was then gently advanced from the ECA to the ICA lumen until mild resistance was felt (˜9 mm). For reperfusion, the suture was withdrawn 50 min after MCAO to restore blood flow. Body temperature was maintained for the duration of the experiment between 36.5° C.-37° C. with a small animal heating pad (Kent Scientific).
At 24 hours reperfusion, mice were anesthetized with 5% isoflurane and then decapitated. Coronal brain tissue slices (2 mm) were stained for 20 minutes at 37° C. with 1% 2,3,5-triphenyltetrazolium chloride monohydrate (TTC; Sigma, St Louis, Mo.) in PBS solution. […] The extent of hemispheric swelling was calculated using the following equation: swelling (% contralateral side)=[(volume of ipsilateral hemisphere−volume of contralateral hemisphere)/volume of contralateral hemisphere]×100 (Bhuiyan et al. (2017) Journal of cerebral blood flow and metabolism: official journal of the International Society of Cerebral Blood Flow and Metabolism 37: 2780-2794).
Referring to FIG. 11A, an experimental design of ischemic stroke study is shown. Vehicle or ZT-1a is administered at 3 hrs and 8 hrs post-MCAO.
Referring to FIG. 11B, representative images and quantification of infarct volume and hemispheric swelling in TTC-stained coronal sections of mouse brains 24 hrs post-MCAO are shown. Vehicle (DMSO, 2 ml/kg) or ZT-1a (2.5 or 5.0 mg/kg) were administered with an initial half dose at 3 hrs and the second half dose at 8 hr reperfusion via intra-peritoneal injection (i.p.). Data are mean±SD, n=6-12 per group (male). * p<0.05.

all four WNK kinases = details: cited from earlier work
[2] = tested on: normotensive and hypertensive rodent models; details: oral administration of 1-10 mg/kg; cited from earlier work
mice = assay: Adverse effects of WNK463 administered to mice; type: in vivo, mouse; details: 2.5 mg/kg dose

## CC(C)(C)NC(=O)c1cncn1C1CCN(c2ccc(-c3nnc(C(F)(F)F)o3)cn2)CC1 [WNK463]
[1]
  effect on infarct volume and hemispheric swelling: reduced neither infarct volume nor hemispheric swelling; also recorded: no neuroprotective effects
All four WNK kinases
  inhibition of WNK kinases in vitro: nanomolar range
[2]
  effect on blood pressure: reduced blood pressure
mice
  adverse effects: ataxia and breathing difficulties
